Results from patent US8362071B2, “Antiadhesion agents” (The Ohio State University Research Foundation, priority 2009, dated 2013).
pIC50: −log10 of the molar value. Entries after “also recorded” stand apart in the source; their conditions may differ. Read-outs that look alike come from different tables or passages of the source.

Columns and labels:
[1] = tested on: focal adhesion kinase (FAK); test: FAK protein stability by Western blotting; type: cell-based, mouse; settings: each at 5 μM, 4T1 cells, 1 h
Description: (§1) VES derivatives target focal adhesion kinase (FAK) degradation. Considering the important role of FAK in regulating the formation of focal adhesions and actin stress fibers (McLean et al., Nat Rev Cancer 5, 505-15 (2005)), the effect of compound 2 on focal adhesion sites in 4T1 cells was assessed by immunostaining with anti-FAK antibodies, the results of which are shown in FIG. 4A. […] It is noteworthy that the disruption of actin stress fibers and focal adhesion by compound 2 is reminiscent of that induced by mannitol in neuroblastoma cells. Kim et al. J Biol Chem 277, 27393-400 (2002). As mannitol-induced cytoskeletal changes were preceded by the degradation of FAK, the effects of compound 2 relative to VES, TS-1, and compounds 1 and 3, each at 5 μM, on FAK protein stability in 4T1 cells was investigated by Western blotting.

[2] = tested on: 4T1 metastatic breast cancer cells; test: Adhesion assay: 4T1 cell adhesion to a Matrigel-coated surface; type: cell-based, mouse; settings: for anti-adhesion potency (in words) / anti-adhesion activity relative to VES (FIG. 2A, in words): 4T1 cells, Matrigel-coated surface; for anti-adhesion activity relative to VES (FIG. 2A, in words): each at 5 μM
Description: Adhesion Assay. Ninety six-well plates were coated with 12% (v/v) Matrigel (BD Biosciences) at 37° C. for 1 hour, washed twice with washing buffer (0.1% BSA-containing RPMI medium) followed by blocking with 0.5% BSA-containing RPMI medium at 37° C. for 60 minutes. 4T1 cells were treated with individual derivatives at the indicated concentrations at 37° C. in a CO2 incubator for 60 minutes, and 2×10^4 cells in 100 μl were seeded in each well. Cells were allowed to adhere to the Matrigel-coated surface for 30 min at 37° C., and nonadherent cells were removed by gentle washing with the aforementioned washing buffer. Adherent cells were fixed with 10% formalin, stained with 0.5% crystal violet, and dissolved in 2% SDS. Absorbance at 570 nm was measured in an ELISA plate reader (Molecular device, Sunnyvale, Calif.).

4T1 cells [3] = test: Transwell (Boyden chamber) migration assay, serum-induced; type: cell-based, mouse; settings: FIG. 3A
Description: Migration Assay. 4T1 cells were trypsinized for 5 min, washed, and suspended in 0.2% FBS-supplemented RPMI 1640 medium. Five×10^4 cells in 0.5 ml of 0.2% FBS-supplemented RPMI medium containing individual test agents at the indicated concentrations were added to the upper chamber (i.e., insert) of each Transwell system (12 mm, polycarbonate, 12-μm pore, Millipore) in a 24-well plate, and incubated at 37° C. in a CO2 incubator for 30 min. The inserts were then switched to a new well containing 10% FBS-supplemented RPMI 1640 medium for 24 h. All cells in each well were fixed with 10% formalin followed by staining with 0.5% crystal violet. To quantify migrated cells, cells attached to the bottom side of the upper chamber and in the bottom of the well were wiped with a moistened cotton swab, which was then rinsed with 80 μl DDW. The cells were then dissolved by the addition of 320 μl 100% methanol. Enumeration of non-migrated cells was done by placing the chamber into 400 μl of 80% methanol, and incubating for 30 min in an orbital shaker. Absorbance at 570 nm was measured in an ELISA plate reader. Percentage of cell migration in each well was calculated using the following equation: % of migration=100×[(O.D. of migrated cells)−(O.D. of background)]/{[(O.D. of migrated cells)−(O.D. of background)]+[(O.D. of non-migrated cells)−(O.D. of background)]}. The migration activity in each treatment group is expressed as a percentage of that in the vehicle controls, which was considered to be 100%.

[4] = tested on: focal adhesion kinase (FAK); test: Focal adhesion sites by immunostaining with anti-FAK antibody; type: cell-based, mouse; settings: 2.5 μM, 1 h, 4T1 cells
Description: as §1

4T1 cells [5] = test: F-actin immunostaining (actin cytoskeletal structure); type: cell-based, mouse; settings: for reduction in the fluorescent intensity of F-actin relative to the DMSO control: 4 h, 4T1 cells; for effect on actin cytoskeleton (stress fibers, lamellipodia; in words): 4 hours of exposure, FIG. 3B
Description: F-actin Immunostaining To assess the effect of test compounds on actin cytoskeletal structures, cells were seeded onto coverslips in six-well plates and incubated overnight, followed by exposure to individual agents at the indicated concentrations for 4 h in 2% FBS-containing RPMI 1640 medium. Cells were then fixed in 3.7% formaldehyde, permeabilized with PBS containing 0.1% Triton X-100 and 0.1% BSA for 1 h, and then incubated with Alexa Fluor 488 phallotoxin staining solution (Molecular Probes, Inc., Eugene, Oreg.) for 30 min. Nuclear counterstaining was achieved by use of 4,6-diamidino-2-phenylindole (DAPI)-containing mounting medium. Immunocytochemically labeled cells were visualized and images captured using a Zeiss microscope (LSM510) with Argon and HeNe lasers, appropriate filters (excitation wavelengths were 488 nm and 543 nm), and a 63×1.4 numerical aperture water immersion lens. Differences in fluorescence intensity were calculated from comparisons of the control sample with each of the treatment samples under the same threshold using MacBiophotonic ImageJ software (National Institutes of Health) and were expressed as percentages of the fluorescent intensity of the untreated control. Statistical significance was evaluated using Student's t-test and considered significant at P<0.05.

breast tumor = settings: animal models; Hahn et al. 2006; cited from earlier work
[6] = Mus musculus, 4T1, adhesion to Matrigel-coated surface, FIG. 2B, read-out: IC50, inhibiting 4T1 cell adhesion

Row | SMILES | pIC50 [2, 6] | FAK degradation (in words) [1] | anti-adhesion potency (in words) [2] | inhibition of serum-induced 4T1 cell migration (in words) (4T1 cells [3]; 5 μM) | also measured
1 | Cc1c(C)c2c(c(C)c1OC(=O)CCC(=O)O)CCC(C)(CCCC(C)CCCC(C)C)O2 (stereo not shown) [TS-1] |  | less evident or not appreciable | substantially improved potency vis-à-vis VES | little effect | pIC50 ([2]; adhesion to Matrigel-coated surface, FIG. 2B, read-out: IC50, inhibiting 4T1 cell adhesion): 5.60; anti-adhesion activity relative to VES (FIG. 2A, in words) [2]: significantly improved potencies
2 | Cc1c(C)c2c(c(C)c1OC(=O)CCC(=O)O)CCC(C)(CCCC(C)C)O2 (stereo not shown) [TS-2] |  |  | substantially improved potency vis-à-vis VES |  | anti-adhesion activity relative to VES (FIG. 2A, in words) [2]: to a lesser extent
3 | Cc1c(C)c2c(c(C)c1OC(=O)CCC(=O)O)CC[C@@](C)(CCC[C@H](C)CCC[C@H](C)CCCC(C)C)O2 [VES, α-tocopheryl succinate, reference compound] |  | less evident or not appreciable | modest inhibitory effect |  | inhibition of serum-induced 4T1 cell migration (in words) (4T1 cells [3]; 50 μM): little effect
4 | Cc1c(C)c2c(c(C)c1OCC(=O)O)CCC(C)(CCCC(C)CCCC(C)CCCC(C)C)O2 (stereo not drawn) [α-tocopheryloxyacetic acid] |  |  |  |  | effect on breast tumor growth and lung metastasis (in words) (breast tumor): suppress breast tumor growth and to reduce lung metastasis

Continued, in another order:

Row | pIC50 [2, 6] | SMILES | FAK degradation (in words) [1] | anti-adhesion potency (in words) [2] | inhibition of serum-induced 4T1 cell migration (in words) (4T1 cells [3]; 5 μM) | also measured
5 | 5.89 | Cc1c(C)c2c(c(C)c1OC(=O)CCC(=O)O)CCC(C)(C=CCC(C)CCCC(C)C)O2 (stereo not shown) [compound 1, Succinic acid mono-[2-(4,8-dimethyl-non-1-enyl)-2,5,7,8-tetramethyl-chroman-6-yl]ester] |  | multifold improvement in the anti-adhesion potency | effective in inhibiting cell migration | 
6 | 6.22 | Cc1c(C)c2c(c(C)c1OCC(=O)O)CCC(C)(C=CCC(C)CCCC(C)C)O2 (stereo not shown) [compound 2, [2-(4,8-Dimethyl-non-1-enyl)-2,5,7,8-tetramethyl-chroman-6-yloxy]-acetic acid] | induced FAK degradation |  | effective in inhibiting cell migration | effect on focal adhesion sites (FAK punctate staining; in words) [4]: loss of focal adhesion sites; also recorded: no longer detectable; reduction in the fluorescent intensity of F-actin relative to the DMSO control (4T1 cells [5]; 5 μM): 84%; effect on actin cytoskeleton (stress fibers, lamellipodia; in words) (4T1 cells [5]; 5 μM): rapid dissolution of stress fiber and impairment of lamellipodia formation; pIC50 ([2]; Mus musculus, 4T1, summary statement b23, read-out: IC50, blocking the adhesion of 4T1 metastatic breast cancer cells): 6.22
7 | 5.70 | Cc1c(C)c2c(c(C)c1OCC(=O)O)CCC(C)(CCCC(C)CCCC(C)C)O2 (stereo not shown) [compound 3, [2-(4,8-Dimethyl-nonyl)-2,5,7,8-tetramethyl-chroman-6-yloxy]-acetic acid] |  |  | effective in inhibiting cell migration | reduction in the fluorescent intensity of F-actin relative to the DMSO control (4T1 cells [5]; 10 μM): 70%; effect on actin cytoskeleton (stress fibers, lamellipodia; in words) (4T1 cells [5]; 10 μM): rapid dissolution of stress fiber and impairment of lamellipodia formation
